Usually pIC50 stands for the negative decadic logarithm of the IC50, by convention in mol/L. Higher therefore signals a low IC50.

From BindingDB's records for patent US20260028352 (Suzhou Langrui Biopharmaceutical, 2026) come the findings set out here.

The target in experiment [1] is High affinity nerve growth factor receptor NTRK1 [F589L] (UniProt P04629, F589L). Briefly: Inhibitory Activity of Compounds Against TRKA and TRKA(F589L) Kinases. The method, then:
(§1) Kinase Assay Process: 1× Kinase buffer was prepared. […] 10 μL of the 2.5× final concentration kinase solution was added to the compound wells and the positive control wells, and 10 μL of 1× Kinase buffer was added to the negative control wells. The plate was centrifuged at 1000 rpm for 30 seconds, vortexed for mixing, and then incubated at room temperature for 10 minutes. A mixture of 5/3× final concentration of ATP and Kinase Substrate 22 was prepared using 1× Kinase buffer. 15 μL of the mixture of the 5/3× final concentration ATP and the substrate was added to initiate the reaction, the 384-well plate was centrifuged at 1000 rpm for 30 seconds, vortexed for mixing, and incubated at room temperature for the required time. 30 μL of the termination solution was added to stop the kinase reaction, the plate was centrifuged at 1000 rpm for 30 seconds, and vortexed for mixing. The conversion rate was measured using the Caliper EZ Reader.

Experiment [2] has as its target High affinity nerve growth factor receptor (Homo sapiens, UniProt P04629). Described as above. The method, then:
as §1

SMILES strings stand for the structures. pIC50: −log10 of the molar value.

Chain of High affinity nerve growth factor receptor (P04629 whole entry): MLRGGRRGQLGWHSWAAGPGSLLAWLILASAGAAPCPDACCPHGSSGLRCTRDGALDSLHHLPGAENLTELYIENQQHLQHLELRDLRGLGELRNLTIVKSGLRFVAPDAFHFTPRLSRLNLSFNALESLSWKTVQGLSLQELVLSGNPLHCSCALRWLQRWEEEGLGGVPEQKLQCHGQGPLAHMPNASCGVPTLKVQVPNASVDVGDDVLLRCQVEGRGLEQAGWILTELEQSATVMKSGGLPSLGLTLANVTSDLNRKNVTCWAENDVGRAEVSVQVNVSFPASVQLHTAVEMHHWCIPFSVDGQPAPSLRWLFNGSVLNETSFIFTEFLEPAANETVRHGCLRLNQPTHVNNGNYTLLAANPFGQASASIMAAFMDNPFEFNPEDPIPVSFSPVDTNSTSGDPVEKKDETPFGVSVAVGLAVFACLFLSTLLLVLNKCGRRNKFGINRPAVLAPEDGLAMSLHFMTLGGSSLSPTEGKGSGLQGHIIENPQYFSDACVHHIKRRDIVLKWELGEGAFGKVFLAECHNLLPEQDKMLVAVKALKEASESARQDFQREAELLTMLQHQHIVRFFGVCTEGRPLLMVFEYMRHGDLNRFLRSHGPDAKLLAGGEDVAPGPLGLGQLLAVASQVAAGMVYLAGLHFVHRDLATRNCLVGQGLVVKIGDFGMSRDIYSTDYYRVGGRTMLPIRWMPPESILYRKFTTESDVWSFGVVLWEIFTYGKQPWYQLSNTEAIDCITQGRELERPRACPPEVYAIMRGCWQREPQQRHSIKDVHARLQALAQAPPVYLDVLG
Chain of High affinity nerve growth factor receptor NTRK1 [F589L] (P04629 33-796 F589L limits assumed): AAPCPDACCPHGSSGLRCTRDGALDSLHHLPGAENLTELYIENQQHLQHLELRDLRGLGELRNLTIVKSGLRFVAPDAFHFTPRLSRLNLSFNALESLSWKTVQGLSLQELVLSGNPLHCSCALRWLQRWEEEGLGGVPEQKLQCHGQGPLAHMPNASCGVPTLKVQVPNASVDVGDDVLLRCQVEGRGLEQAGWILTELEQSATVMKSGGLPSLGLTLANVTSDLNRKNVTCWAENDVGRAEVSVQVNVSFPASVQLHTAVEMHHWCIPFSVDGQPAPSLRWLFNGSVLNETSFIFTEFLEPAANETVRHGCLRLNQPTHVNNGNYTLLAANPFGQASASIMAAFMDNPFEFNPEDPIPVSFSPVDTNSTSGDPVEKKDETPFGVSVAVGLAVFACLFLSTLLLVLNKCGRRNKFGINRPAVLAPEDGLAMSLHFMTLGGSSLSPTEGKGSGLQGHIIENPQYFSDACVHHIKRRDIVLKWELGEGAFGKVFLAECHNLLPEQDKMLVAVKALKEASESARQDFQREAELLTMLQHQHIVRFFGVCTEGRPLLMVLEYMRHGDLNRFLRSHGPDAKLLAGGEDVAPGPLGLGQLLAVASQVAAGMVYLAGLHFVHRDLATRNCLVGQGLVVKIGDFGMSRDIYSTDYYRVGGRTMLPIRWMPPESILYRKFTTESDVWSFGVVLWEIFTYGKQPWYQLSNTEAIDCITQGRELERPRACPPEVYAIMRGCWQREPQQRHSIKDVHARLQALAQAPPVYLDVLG

As for `C[C@H]1Nc2ccc3ncc(n3n2)-c2cc(cnn2)COc2ncc(F)cc21` [US20260028352, Example I-79], the figures for the negative logarithm of the IC50 (pIC50) in experiment [1] and in experiment [2] were > 8.30 and > 8.52, respectively.

With `C[C@@H]1Cc2ccnc(c2)-c2cnc3ccc(nn23)N2C[C@@H](F)C[C@@H]2c2cc(F)ccc2O1` [US20260028352, Example I-39], the pIC50 was > 8.30 in experiment [1] and > 8.52 in experiment [2].

In the case of `C[C@@H]1Cc2ccnc(c2)-c2cnc3ccc(nn23)N[C@H](C)c2cc(F)cnc2O1` [US20260028352, Example I-36], the negative logarithm of the IC50 (pIC50) in experiment [1] was > 8.30; in experiment [2], > 8.52.

Take `Fc1cnc2c(c1)[C@H]1C[C@H](F)CN1c1ccc3ncc(n3n1)-c1cc(cnn1)CO2` [US20260028352, Example I-62]: the pIC50 in experiment [1] was > 8.30; in experiment [2] it was > 8.52.

Turning to `C[C@H]1Cc2ccnc(n2)-c2cnc3ccc(nn23)N2C[C@@H](F)C[C@@H]2c2cc(F)cnc2O1` [US20260028352, Example I-96], the pIC50 in experiment [1] was > 8.30; in experiment [2] it was > 8.52.

In the case of `C[C@H]1Nc2ccc3ncc(n3n2)-c2cc(ncn2)CCOc2ccccc21` [US20260028352, Example I-32], the pIC50 was > 8.30 in experiment [1] and > 8.52 in experiment [2].

As to `C[C@H]1Nc2ccc3ncc(n3n2)-c2cc(ncn2)CCOc2ccc(F)cc21` [US20260028352, Example I-74], the figures for the pIC50 in experiment [1] and in experiment [2] were > 8.30 and > 8.52, respectively.

On to `C[C@H]1Nc2ccc3ncc(n3n2)-c2cc(ccn2)N2CCC[C@@H](C2)Oc2ccc(F)cc21` [US20260028352, Example I-44], for which the values for the pIC50 in experiment [1] and in experiment [2] were > 8.30 and > 8.52, respectively.

Turning to `C[C@H]1Nc2ccc3ncc(n3n2)-c2cc(ncn2)CCOc2ncc(F)cc21` [US20260028352, Example I-73], the results for the pIC50 in experiment [1] and in experiment [2] were > 8.30 and > 8.52, respectively.

With `C[C@H]1Nc2ccc3ncc(n3n2)-c2nccc(n2)COc2ncc(F)cc21` [US20260028352, Example I-81], the pIC50 is > 8.30 in experiment [1] and > 8.52 in experiment [2].

`Fc1ccc2c(c1)[C@H]1CCCN1c1ccc3ncc(n3n1)-c1cc(cnn1)CCO2` [US20260028352, Example I-85]: the pIC50 in experiment [1] is > 8.30; in experiment [2], > 8.52.

For the compound `Fc1ccc2c(c1)[C@H]1CCCN1c1ccc3ncc(n3n1)-c1cc(cnn1)CO2` [US20260028352, Example I-65], the negative logarithm of the IC50 (pIC50) is > 8.30 in experiment [1] and > 8.52 in experiment [2].

As to `Fc1ccc2c(c1)C1(CC1)Nc1ccc3ncc(n3n1)-c1cc(ccn1)CO2` [US20260028352, Example I-47], the pIC50 was > 8.30 in experiment [1] and > 8.52 in experiment [2].

For `Fc1cnc2c(c1)[C@H]1CCCN1c1ccc3ncc(n3n1)-c1cc(cnn1)CCO2` [US20260028352, Example I-87], the pIC50 in experiment [1] is > 8.30; in experiment [2], > 8.52.

Regarding `C[C@@H]1Cc2cc(ncn2)-c2cnc3ccc(nn23)N[C@H](C)c2cc(F)ccc2O1` [US20260028352, Example I-35], the pIC50 in experiment [1] is > 8.30; in experiment [2], > 8.52.

Regarding `C[C@H]1Nc2ccc3ncc(n3n2)-c2cc(ncn2)COc2ccc(F)cc21` [US20260028352, Example I-78], the figures for the pIC50 in experiment [1] and in experiment [2] were > 8.30 and > 8.52, respectively.

Regarding `Fc1ccc2c(c1)[C@H]1CCCN1c1ccc3ncc(n3n1)-c1cc(ncn1)CO2` [US20260028352, Example I-69], the pIC50 in experiment [2] was > 8.52.

Take `C[C@H]1Nc2ccc3ncc(n3n2)-c2cc(ccn2)N2CC[C@H](C2)Oc2ccc(F)cc21` [US20260028352, Example I-41]: in experiment [2], the pIC50 was > 8.52.

Consider `Fc1cnc2c(c1)[C@H]1C[C@H](F)CN1c1ccc3ncc(n3n1)-c1cc(ccn1)CCO2` [US20260028352, Example I-54], for which the pIC50 in experiment [2] was > 8.52.

In the case of `Fc1ccc2c(c1)[C@H]1C[C@H](F)CN1c1ccc3ncc(n3n1)-c1nccc(n1)CCO2` [US20260028352, Example I-93], the negative-log IC50 (pIC50) in experiment [2] is > 8.52.

`Fc1ccc2c(c1)[C@H]1CCCN1c1ccc3ncc(n3n1)-c1cc(ccn1)[C@H]1CCC[C@H]1O2` [US20260028352, Example I-45]: the negative logarithm of the IC50 (pIC50) is > 8.30 in experiment [1] and > 8.52 in experiment [2].

`Fc1ccc2c(c1)[C@H]1CCCN1c1ccc3ncc(n3n1)-c1nccc(n1)CO2` [US20260028352, Example I-61]: the pIC50 is > 8.30 in experiment [1] and > 8.52 in experiment [2].

Turning to `Fc1cnc2c(c1)[C@H]1CCCN1c1ccc3ncc(n3n1)-c1cc(ccn1)CCO2` [US20260028352, Example I-55], in experiment [2], the pIC50 is > 8.52.

`C[C@@H]1Cc2ccnc(c2)-c2cnc3ccc(nn23)N[C@H](C)c2cc(F)ccc2O1` [US20260028352, Example I-34]: the pIC50 in experiment [2] was > 8.52.

Turning to `C[C@H]1Nc2ccc3ncc(n3n2)-c2cc(cnn2)COc2ccc(F)cc21` [US20260028352, Example I-82], the figures for the pIC50 in experiment [1] and in experiment [2] were > 8.30 and > 8.52, respectively.

Regarding `Fc1ccc2c(c1)[C@H]1CCCN1c1ccc3ncc(n3n1)-c1cc(ccn1)CCO2` [US20260028352, Example I-53], the pIC50 in experiment [2] is > 8.52.

In the case of `C[C@H]1Nc2ccc3ncc(n3n2)-c2nccc(n2)COc2ccc(F)cc21` [US20260028352, Example I-80], in experiment [2], the pIC50 was > 8.52.

In the case of `Fc1cnc2c(c1)[C@H]1CCCN1c1ccc3ncc(n3n1)-c1cc(cnn1)CO2` [US20260028352, Example I-67], the pIC50 in experiment [2] is > 8.52.

On to `C[C@H]1Nc2ccc3ncc(n3n2)-c2cc(ccn2)CCOc2ccc(F)cc21` [US20260028352, Example I-76], for which the pIC50 was > 8.30 in experiment [1] and > 8.52 in experiment [2].

With `C[C@H]1Nc2ccc3ncc(n3n2)-c2cc(ccn2)N2CCC[C@H](C2)Oc2ccc(F)cc21` [US20260028352, Example I-43], the pIC50 in experiment [2] was > 8.52.

For the compound `Fc1cnc2c(c1)[C@H]1C[C@H](F)CN1c1ccc3ncc(n3n1)-c1cc(ncn1)CO2` [US20260028352, Example I-52], the results for the pIC50 in experiment [1] and in experiment [2] were > 8.30 and > 8.52, respectively.

As for `C[C@@H]1Cc2ccnc(c2)-c2cnc3ccc(nn23)N2CCC[C@@H]2c2cc(F)ccc2O1` [US20260028352, Example I-37], the pIC50 was > 8.30 in experiment [1] and > 8.52 in experiment [2].

Turning to `Fc1ccc2c(c1)[C@H]1CCCN1c1ccc3ncc(n3n1)-c1cc(ccn1)[C@@H]1CCC[C@H]1O2` [US20260028352, Example I-46], the values for the pIC50 in experiment [1] and in experiment [2] were > 8.30 and > 8.52, respectively.
